# Measured values published in US5877165A, “Boronated porhyrins and methods for their use” (priority 1997, dated 1999).
# Entries after “also recorded” stand apart in the source; their conditions may differ.
# How the values were obtained:
# [1] = Hematological, enzymatic and chemical blood analyses and weight change, mice with KHJJ mammary carcinomas (Examples 4-7, Table 1); format: in vivo, BALB/c mice; conditions: NiTCP 160 or BPA 900 μg/gbw; 6-78 hr
# Description: Female BALB/c mice (Taconic Farms, Germantown, N.Y.) (20-25 g) were implanted with either KHJJ or EMT-6 tumors. For KHJJ tumors, 1-3 mm^3 tumor fragments were implanted subcutaneously (s.c.) in the dorsal thorax of each mouse using an 18-gauge trocar. For EMT-6 tumors, 2.5×10^5 cells were implanted similarly using a 27-gauge needle. EMT-6 tumor cells were grown alternately in vivo and in vitro. Single-cell suspensions were prepared from mouse-grown tumors by trypsinization. These were grown in cell culture for several passages and then were frozen in 10% DMSO and stored in liquid nitrogen. Prior to implantation in mice, the cells were thawed and grown in tissue culture in Alpha-MEM with 10% FBS for several passages. […]
# Levels of glucose [GLU], blood urea nitrogen [BUN], blood creatinine [BCR], alanine transaminase [ALT], aspartate transaminase [AST], alkaline phosphatase [ALP], total protein [TPR], albumin [ALB], and creatine phosphokinase [CPK] were determined in blood plasma using a Cobas Fara II microanalysis system. Blood platelets [PLT] and white blood cells [WBC] were counted using a Serono-Baker System 9000 automated hematology microanalyzer. […]
# [2] = Toxicity testing of NiTCP, MnTCP and CuTCP in normal mice (Example 13, Table 3); format: in vivo, BALB/c mice; conditions: 4 days after last of 6 ip injections
# Description: Levels of glucose [GLU], blood urea nitrogen [BUN], blood creatinine [BCR], alanine transaminase [ALT], aspartate transaminase [AST], alkaline phosphatase [ALP], total protein [TPR], albumin [ALB], and creatine phosphokinase [CPK] were determined in blood plasma using a Cobas Fara II microanalysis system. Blood platelets [PLT] and white blood cells [WBC] were counted using a Serono-Baker System 9000 automated hematology microanalyzer.
# Compounds prepared as in Example 1B and 1C were formulated with 6% Cremophor EL [CRM] and 12% propylene glycol [PrG] in saline. Total doses of MnTCP and CuTCP of 174 and 223 μg/g body weight, respectively, were administered to normal BALB/c mice. Each mouse was given 6 intraperitoneal [ip] injections over a period of 32 hours. Mice were euthanized 4 days after the last injection and chemical, enzymatic and hematological analyses of their blood were compared to those of similar mice given NiTCP at a dose of 252 μg/g body weight.
substance,measurement,setting,value
Nickel Tetracarboranylphenylporphyrin [NiTCP],"toxicity, in words",[1],"some minor, evidently transient, weight loss was noted six hours after the last NiTCP injection; also recorded: The BUN levels in mice given NiTCP at all three time points were higher than those in mice given BPA; also recorded: The ALP and ALT were somewhat depressed 78 hours after injections"
same,"toxicity / thrombocytopenia, in words",[2],nontoxic
